“Also recorded” adds a separate entry of the source.
Tests used:
[1] = system: HFF-1 (human foreskin fibroblasts); assay: Proliferation assay (MTT, 72 h) on normal fibroblasts HFF-1; format: cell-based; details: HFF-1 normal fibroblasts
Description: (§1) Human cell lines SW620 (colorectal adenocarcinoma, metastatic), MCF-7 (human breast adenocarcinoma), CFPAC-1 (pancreatic adenocarcinoma), HeLa (cervical carcinoma), and HFF-1 (human foreskin fibroblasts) were obtained from the American Type Culture Collection (ATCC). Cells were cultured in a humidified atmosphere at 37 °C with 5% CO2. As a growth medium, Dulbecco’s modified Eagle medium (DMEM) was used with the addition of foetal bovine serum (10%), L-glutamine (2 mM), and antibiotics: streptomycin ([…]) and penicillin (100 U/ml).
(§2) Cells were seeded onto 96-well microtiter plates at a seeding density of 3000 cells/well for carcinoma cell lines, and 5000 cells/well for normal human fibroblasts. The next day, cells were treated with test agents at five different concentrations (0.01–100 µM) and further incubated for 72 h. […] 5-Fluorouracil (5-FU, 0.384 M fluorouracilum, Pliva 500 mg/10 ml) dissolved in physiological solution was used as a positive control. Following 72 h incubation, the MTT assay was performed and measured absorbances were transformed into a percentage of cell growth as described previously. Results were obtained from three independent experiments. IC50 values were calculated using linear regression analysis (FORECAST option taking into account the concentration range of two experimental points above and below IC50).

[2] = system: Bloodstream form T. b. brucei (strain 221); assay: Antitrypanosomal screening (resazurin); format: cell-based; details: Trypanosoma brucei; for IC90: concentration that inhibited growth by 90%, mean ± SEM; for IC50: mean of triplicate ± SEM
Description: Resazurin (20 μl at 0.125 mg ml^−1) was added after 48 h, the plates were incubated for a further 16 h, and then read in a Spectramax plate reader, and data analysed using GraphPad Prism. Each drug was tested in triplicate.

[3] = system: ctDNA; assay: CD titration of ctDNA; format: binding, calf; details: for induced CD (ICD) signal with ctDNA: CD titration, pH 7.0, λ > 300 nm; for binding mode to ctDNA: concluded from ICD, ΔTm and binding constants
Description: (§3) These solutions were used for measurements in an aqueous buffer (pH = 7, sodium cacodylate buffer, I = 0.05 mol dm^−3). Polynucleotides were purchased as noted: poly (dAdT)2 and calf thymus ctDNA (Sigma-Aldrich). Polynucleotides were dissolved in Na-cacodylate buffer, I = 0.05 mol dm^−3, pH = 7. The calf thymus ctDNA was additionally sonicated and filtered through a […]. Polynucleotide concentration was determined spectroscopically[50]^,[51] as the concentration of phosphates.
CD spectra were recorded on a JASCO J815 spectrophotometer in 1 cm path quartz cuvettes. CD parameters: range = 500–220 nm, data pitch = 2, standard sensitivity, scanning speed = 200 nm/min, accumulation = 3–5. Titrations were performed at 25 °C and pH = 7 (I = 0.05 mol dm^−3, sodium cacodylate buffer). CD experiments were done by adding portions of the compound stock solution into the polynucleotide solution.

[4] = system: ctDNA; assay: Thermal denaturation of ctDNA; format: binding, calf; details: r = [compound]/[polynucleotide] = 0.3, pH 7.0; error ±0.5 °C
Description: as §3
(§4) The UV/Vis spectra were recorded on a Varian Cary 100 Bio spectrophotometer using 1 cm path quartz cuvettes. Calibration experiments were performed at 25 °C and pH = 7 (I = 0.05 mol dm^−3, sodium cacodylate buffer). Absorption maxima and corresponding molar extinction coefficients (ε) of benzothiazole derivatives are given in Table S1 (Supplementary material). Thermal melting curves for DNA and their complexes with studied compounds were determined as previously described by following the absorption change at 260 nm as a function of temperature. The absorbance of the ligands was subtracted from every curve and the absorbance scale was normalised. Tm values are the midpoints of the transition curves determined from the maximum of the first derivative and checked graphically by the tangent method. The ΔTm values were calculated by subtracting Tm of the free nucleic acid from Tm of the complex. Every ΔTm value reported here was the average of at least two measurements. The error in ΔTm is ±0.5 °C.

[5] = system: L6 cells (a rat myoblast line); assay: L6 cell proliferation (cytotoxicity, resazurin); format: cell-based; details: 144 h; rat myoblast L6, 6 days
[6] = system: HeLa (cervical carcinoma); assay: Proliferation assay (MTT, 72 h) on HeLa; format: cell-based; details: Homo sapiens
Description: as §1, §2

[7] = system: SW620 (colorectal adenocarcinoma, metastatic); assay: Proliferation assay (MTT, 72 h) on SW620; format: cell-based; details: Homo sapiens, SW-620, SW620, 72 h
Description: as §1, §2

[8] = system: MCF-7 (human breast adenocarcinoma); assay: Proliferation assay (MTT, 72 h) on MCF-7; format: cell-based; details: MCF7, MCF-7, 72 h
Description: as §1, §2

[9] = system: calf thymus ctDNA; assay: Fluorimetric titration with ctDNA; format: binding; details: for I/I0: fluorescence intensity of complex / starting intensity, ctDNA, pH 7.0; for LogKs: fluorescence titration with ctDNA, Scatchard, fixed n = 0.6, pH 7.0, sodium cacodylate I = 0.05 mol dm−3
Description: The calf thymus ctDNA was additionally sonicated and filtered through a […]. Polynucleotide concentration was determined spectroscopically[50]^,[51] as the concentration of phosphates. Fluorescence spectra were recorded on a Varian Cary Eclipse spectrophotometer at 25 °C using appropriate 1 cm path quartz cuvettes. […] In fluorimetric experiments, an excitation wavelength of λexc ≥300 nm was used to avoid the inner filter effect caused due to increasing absorbance of the polynucleotide. Emissions were determined in the range λem = 350–650 nm. Values for Ks were obtained by processing titration data using the Scatchard equation[52].

[10] = system: poly (dAdT)2; assay: Thermal denaturation of p(dAdT)2; format: binding; details: r = [compound]/[polynucleotide] = 0.3, pH 7.0; error ±0.5 °C
Description: as §3, §4

[11] = system: CFPAC-1 (pancreatic adenocarcinoma); assay: Proliferation assay (MTT, 72 h) on CFPAC-1; format: cell-based; details: Homo sapiens, CFPAC-1, 72 h
Description: as §1, §2

Structure (SMILES) | IC50 [1] [nM] | IC90 [2] [nM] | IC50 [2] [nM] | induced CD (ICD) signal with ctDNA [3] | binding mode to ctDNA [3] | ΔTm ctDNA [4] [°C] | IC50 [5] [nM] | IC50 [6] [nM] | IC50 [7] [nM] | IC50 [8] [nM] | I/I0 [9] | LogKs [9] | ΔTm p(dAdT)2 [10] [°C] | IC50 [11] [nM] | melting point [°C]
N=C(N)c1ccc2nc(-c3ccc(OCc4cn(-c5ccc(Cl)cc5)nn4)cc3)sc2c1 [10b] | 170 ± 130 | 810 ± 40 | 540 ± 130 | small negative ICD signal | intercalation | 2.7 | 1460 ± 450 | 1240 ± 600 | 3050 ± 820 | 870 ± 180 | 0.12 | 6.6 | 2.3 |  | 
CS(=O)(=O)O.c1ccc(-n2cc(COc3nc4ccc(C5=NCCN5)cc4s3)nn2)cc1 [11a, 6-(4,5-Dihydro-1H-imidazol-3-ium-2-yl)-2-[(1-phenyl-1H-1,2,3-triazol-4-yl)methoxy] benzothiazole methanesulfonate] | 260 ± 20 | 280 ± 30 | 230 ± 20 | bisignate signal with maxima at 317 and 360 nm | dimer within the minor groove; also recorded: minor groove binding | 2.1 | < 200 | 570 ± 190 | 460 ± 30 | 490 ± 10 | 0.18 | 6.8 | 4.1 | 450 ± 10 | 270 to 274
CS(=O)(=O)O.Clc1ccc(-n2cc(COc3nc4ccc(C5=NCCCN5)cc4s3)nn2)cc1 [12b, 6-(3,4,5,6-Tetrahydropyrimidin-1-ium-2-yl)-2-[(1-(4-Chlorophenyl)-1H-1,2,3-triazol-4-yl]methoxy)benzothiazole methanesulfonate] | 240 ± 90 | 1190 ± 20 | 910 ± 80 | positive induced CD spectra | minor groove binding mode |  | 2320 ± 180 | 2810 ± 580 | 660 ± 210 | 3910 ± 1190 | 0.31 | 7.0 |  | 3550 ± 810 | 220 to 224
CS(=O)(=O)O.c1ccc(-n2cc(-c3nc4ccc(C5=NCCN5)cc4s3)nn2)cc1 [14a, 6-(4,5-Dihydro-1H-imidazol-3-ium-2-yl)-2-(1-phenyl-1H-1,2,3-triazole-4-yl)benzothiazole methanesulfonate] | 120 ± 10 | 530 ± 30 | 400 ± 20 |  |  | 0.7 | < 2000 | 670 ± 60 | 250 ± 160 | 520 ± 260 | 0.54 | 5.6 | 2.6 | 450 ± 190 | 
CS(=O)(=O)O.Clc1ccc(-n2cc(-c3nc4ccc(C5=NCCN5)cc4s3)nn2)cc1 [14b, 6-(4,5-Dihydro-1H-imidazol-3-ium-2-yl)-2-[1-(4-chlorophenyl)-1H-1,2,3-triazole-4-yl]benzothiazole methanesulfonate] | 360 ± 180 | 480 ± 20 | 320 ± 60 |  |  | 2.2 | < 2000 | 480 ± 10 | 350 ± 130 | 1770 ± 180 | 0.45 | 5.0 | 3.6 | 2420 ± 60 | > 300
COc1ccc(-n2cc(-c3nc4ccc(C5=NCCN5)cc4s3)nn2)cc1.CS(=O)(=O)O [14c, 6-(4,5-Dihydro-1H-imidazol-3-ium-2-yl)-2-[1-(4-methoxyphenyl)-1H-1,2,3-triazole-4-yl]benzothiazole methanesulfonate] | 180 ± 10 | 490 ± 10 | 310 ± 20 |  |  | 0 | < 2000 | 380 ± 100 | 360 ± 90 | 540 ± 10 |  |  | 4.5 | 480 ± 30 | > 300
